Laboratory results: paper PMC4740303, “The Sigma-2 Receptor and Progesterone Receptor Membrane Component 1 are Different Binding Sites Derived From Independent Genes” (EBioMedicine, 2015)
Positions count from the first letter of the chain named. Entries after “also recorded” stand apart in the source; their conditions may differ.

What was measured:
S2R [1] = target: T1, S2R (Rattus norvegicus, UniProt Q5U3Y7); experiment: [^125I]-IAF photolabeling of the S2R in PC12 membranes; type: binding
T1 construct: [^125I]-IAF photolabeling of the S2R in PC12 membranes; endogenous in cells; host or cells: PC12 cells
T1 sequence (Q5U3Y7 1-176): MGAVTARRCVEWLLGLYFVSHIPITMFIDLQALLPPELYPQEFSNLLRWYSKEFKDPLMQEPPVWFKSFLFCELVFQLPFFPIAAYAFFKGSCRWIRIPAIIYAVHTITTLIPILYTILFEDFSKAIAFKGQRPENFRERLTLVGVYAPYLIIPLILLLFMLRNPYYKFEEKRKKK
Method: (§1) Cell membrane preparation was performed following our established method ([Guo et al., 2012]). Briefly, cell pellets were suspended in PBS and sonicated on ice using the following settings: 5 sets (10 strokes/set) at duty cycle = 50, output control = 5. Cell homogenates were centrifuged at 8000 × g for 10 min, and the resulting supernatant was collected and subjected to ultracentrifugation at 100,000 × g for 1 h. The supernatant was discarded and the pellet was gently washed twice with ice-cold PBS. The pellet was then resuspended in PBS and sonicated (3 sets, 10 strokes/set at duty cycle = 50, output control = 5) to homogeneity. Protein concentration was then measured using the standard Bradford reagent (Sigma-Aldrich, St. Louis, MO).
(§2) The synthesis of [^125I]-IAF and photolabeling was performed according to our published method ([Pal et al., 2007]). […] [^125I]-IAF was then added (final 1 nM) and incubated for another 40 min with gentle shaking in the dark. Photoactivation of [^125I]-IAF was performed by exposing the samples to a high-pressure AH-6 mercury lamp for 5 s and Laemmli buffer was immediately added to each sample. The samples were then resolved on a 16 × 18 cm SDS gel with 6–18% acrylamide gradient. The gel was dried and exposed to a phosphor screen for 24–48 h and autoradiograms were recorded using a Phosphoimager (Molecular Dynamics).

S2R [2] = target: T2, S2R (Mus musculus, UniProt Q8VD00); parameters: method as in Matsumoto et al., 2014; settings: competitive [^3H]-DTG binding assays; ref Matsumoto et al., 2014; cited from earlier work
T2 construct: Membranes (28 μg total proteins per reaction) prepared from NSC34 cells of controls, PGRMC1 knockout, or PGRMC1-3 × HA overexpression; endogenous in cells; host or cells: NSC34 cells (control, PGRMC1 knockout clones 38 and 207, PGRMC1-3xHA overexpressing)
T2 sequence (Q8VD00 1-176): T1 sequence (Q5U3Y7 1-176) with V4L, T5A, M26L, L33V, F71L, V105A, I118L, I127V, N136S, F169Y

S1R [3] = target: T3, S1R (Mus musculus, UniProt O55242); parameters: method as in Matsumoto et al., 2014; settings: competitive [^3H]-DTG binding assays; ref Matsumoto et al., 2014; cited from earlier work
T3 construct: membranes prepared from control and PGRMC1 knockout (clones 38 and 207) NSC34 cells; endogenous in cells; host or cells: NSC34 cells (control and PGRMC1 knockout clones 38 and 207)

S1R [4] = target: T4, S1R (Rattus norvegicus, UniProt Q9R0C9); experiment: [^125I]-IAF photolabeling of the S1R in PC12 membranes; type: binding; settings: 20 μM
T4 construct: endogenous in cells; host or cells: PC12 cells
Method: as §1, §2

S2R [5] = target: T2, S2R; experiment: [^125I]-IAF photolabeling of the S2R in NSC34 cell membranes; type: binding; settings: NSC34 membranes (control and PGRMC1 knockout); 20 μM
Method: as §1, §2

S1R [6] = target: T3, S1R; experiment: [^125I]-IAF photolabeling of the S1R in NSC34 cell membranes; type: binding; settings: NSC34 membranes (control and PGRMC1 knockout)
Method: as §1, §2

S2R [7] = target: T2, S2R; settings: cited from earlier work
S1R [8] = target: T3, S1R; settings: cited from earlier work; for affinity for the S1R: ref Hellewell et al., 1994
PGRMC1 [9] = tested on: PGRMC1; parameters: method as in Xu et al., 2011; settings: ref Xu et al., 2011, cited from earlier work
S2R [10] = target: T2, S2R; parameters: method as in Pal et al., 2007; settings: earlier work of the group; ref Pal et al., 2007; cited from earlier work
PGRMC1 [11] = target: PGRMC1 (Rattus norvegicus, UniProt P70580); experiment: biochemical
Method: Liver tissues were homogenized (10 ml buffer/g wet tissue) by 4 bursts of 10 s each using a Brinkman polytron (American Laboratory Trading Inc., East Lyme, CT) on setting 6 in ice-cold sodium phosphate buffer (10 mM pH 7.4) containing 0.32 M sucrose and a cocktail of protease inhibitors (20 μg/ml leupeptin, 5 μg/ml soybean trypsin inhibitor, 100 μM phenylmethylsulfonyl fluoride (PMSF), 100 μM benzamidine and 1 mM EDTA). The membrane suspension after homogenization was centrifuged for 10 min at 17,000 × g and the supernatant was subjected to ultracentrifugation at 100,000 × g for 1 h to collect membrane fractions. The pellet from the second centrifugation was resuspended to a protein concentration of 10 mg/ml in the foregoing buffer, snapped frozen and stored at − 80 °C.
Inhibition of [^3H]-progesterone binding to PGRMC1 was performed according to [Peluso et al. (2008)]. […] After incubation at 37 °C for 60 min, the reaction was terminated by rapid filtration through glass fiber filters, using a Brandel cell harvester and processed as described above. […] Nonspecific binding was monitored in the presence of nonradioactive progesterone at 10 μM and subtracted from total [^3H]-progesterone binding.

PGRMC1 [12] = settings: ref Peluso et al., 2008; cited from earlier work
S2R (sigma-2 receptor) = target: T5, S2R (sigma-2 receptor) (Rattus norvegicus, UniProt Q5U3Y7); experiment: Inhibition of [^3H]-DTG binding to the S2R in rat liver membranes
T5 construct: Experiments were performed with rat liver membranes; tissue Pel Freez Biologicals; host or cells: rat liver
T5 sequence (Q5U3Y7 1-176): T1 sequence (Q5U3Y7 1-176)
Method: Rat liver membranes, a rich source of sigma-2 receptor, were prepared as described in our previous reports ([Pal et al., 2007], [Guo et al., 2012]) from frozen tissues (Pel Freez Biologicals, Rogers, AR). Liver tissues were homogenized (10 ml buffer/g wet tissue) by 4 bursts of 10 s each using a Brinkman polytron (American Laboratory Trading Inc., East Lyme, CT) on setting 6 in ice-cold sodium phosphate buffer (10 mM pH 7.4) containing 0.32 M sucrose and a cocktail of protease inhibitors (20 μg/ml leupeptin, 5 μg/ml soybean trypsin inhibitor, 100 μM phenylmethylsulfonyl fluoride (PMSF), 100 μM benzamidine and 1 mM EDTA). The membrane suspension after homogenization was centrifuged for 10 min at 17,000 × g and the supernatant was subjected to ultracentrifugation at 100,000 × g for 1 h to collect membrane fractions. The pellet from the second centrifugation was resuspended to a protein concentration of 10 mg/ml in the foregoing buffer, snapped frozen and stored at − 80 °C.

S2R [13] = target: T2, S2R; experiment: Saturation binding of [^3H]-DTG in NSC34 cell membranes, S1R masked with (+)-pentazocine; settings: mean ± SEM
Method: as §1

T3 sequence (O55242 whole entry): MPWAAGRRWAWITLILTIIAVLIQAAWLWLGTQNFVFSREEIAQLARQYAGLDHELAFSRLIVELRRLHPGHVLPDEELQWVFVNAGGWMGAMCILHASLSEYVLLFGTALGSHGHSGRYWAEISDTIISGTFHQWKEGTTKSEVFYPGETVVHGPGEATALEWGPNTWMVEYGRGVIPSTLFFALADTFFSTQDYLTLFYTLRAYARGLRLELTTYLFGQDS
Chain of PGRMC1 (Rattus norvegicus, UniProt P70580) (P70580 whole entry): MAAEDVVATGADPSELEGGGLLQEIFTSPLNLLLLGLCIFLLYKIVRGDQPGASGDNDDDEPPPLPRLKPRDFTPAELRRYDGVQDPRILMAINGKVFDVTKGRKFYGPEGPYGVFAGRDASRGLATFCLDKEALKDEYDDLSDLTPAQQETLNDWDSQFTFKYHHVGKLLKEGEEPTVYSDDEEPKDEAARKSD
T4 sequence (Q9R0C9 whole entry): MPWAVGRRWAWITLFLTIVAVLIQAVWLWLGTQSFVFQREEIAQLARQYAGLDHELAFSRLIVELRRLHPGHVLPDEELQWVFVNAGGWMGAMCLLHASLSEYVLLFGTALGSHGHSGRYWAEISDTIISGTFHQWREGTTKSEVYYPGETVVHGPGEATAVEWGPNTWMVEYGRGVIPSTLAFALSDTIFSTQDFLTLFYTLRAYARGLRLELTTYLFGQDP

What does the source list for `COc1cc2c(cc1OC)CN(CCCCn1c(=O)n(C)c3ccccc31)CC2` [CM398]?
protection of [^125I]-IAF photolabeling of the S2R (S2R [1]; 1 and 10 μM): selectively blocked the labeling of the S2R; Ki (S2R [2]): 0.43 nM; Ki (S1R [3]): 560 nM

With `Cc1ccccc1NC(=N)Nc1ccccc1C` [DTG, 1,3-di-o-tolylguanidine] as the compound, how does the “protection of [^125I]-IAF photolabeling of the S2R” value (S2R [1]; 20 μM) read?
The value was “protected”.

What about the “protection of [^125I]-IAF photolabeling of the S1R” value (S1R [4]) of the same compound?
Its value is “protected”.

What about the “protection of [^125I]-IAF photolabeling of the S2R (~18 kDa band)” value (S2R [5]) of the same compound?
The value was “protected against photolabeling of both the S1R and the S2R”.

What about the “protection of [^125I]-IAF photolabeling of the S1R (26 kDa band)” value (S1R [6]; 20 μM) of the same compound?
Its value is “protected against photolabeling of both the S1R and the S2R”.

And the “affinity for the S2R” value (S2R [7]; ref Hellewell et al., 1994)?
Its value is ~ 50 nM.

What about the Kd (S1R [8]; read-out: KD for DTG at the S1R, depending on sources of membranes and assay methods, ref Weber et al., 1986, Quirion et al., 1992, Itzhak and Kassim, 1990, Itzhak, 1987) of the same compound?
The Kd was 20 to 80 nM.

And the “affinity for the S1R” value (S1R [8])?
Its value is ~ 50 nM.

And the “protection of photolabeling of PGRMC1 (with WC-21)” value (PGRMC1 [9]; 1 μM)?
Its value is “protected the photolabeling of PGRMC1”.

What about the “protection of the [^125I]-IAF photolabeled S2R band” value (S2R [10]) of the same compound?
The value was “protected”.

What about the Ki (PGRMC1 [11]) of the same compound?
Its Ki is 472000 nM.

Which results are given for `CC(C)=CCN1CC[C@]2(C)c3cc(O)ccc3C[C@H]1[C@H]2C` [(+)-pentazocine]?
protection of [^125I]-IAF photolabeling of the S1R (26 kDa band) (S1R [6]; 5 μM): protected against [^125I]-IAF photolabeling of the S1R; also recorded: readily protected; affinity for the S1R (S1R [8]): < 10 nM; ligand for PGRMC1 (PGRMC1 [9]): not a ligand for PGRMC1

For `CC(=O)[C@H]1CC[C@H]2[C@@H]3CCC4=CC(=O)CC[C@]4(C)[C@H]3CC[C@]12C` [[^3H]-progesterone], which Kd (PGRMC1 [12]) is on record?
Its Kd is 35 nM.

For `CC(=O)[C@H]1CC[C@H]2[C@@H]3CCC4=CC(=O)CC[C@]4(C)[C@H]3CC[C@]12C` [progesterone], which Ki (S2R (sigma-2 receptor)) is on record?
The Ki was 14200 ± 4900 nM.

What about the Kd (PGRMC1 [12]) of the same compound?
Its Kd is 35 nM.

With `Cc1ccccc1NC(=N)Nc1ccccc1C` [[^3H]-DTG, [^3H]-1,3-Di-tolylguanidine] as the compound, how does the Bmax (S2R [13]; Control NSC34 cells (expression vector without PGRMC1 gene)) read?
The Bmax was 2.35 ± 0.5 pmol/mg.

And the Bmax (S2R [13]; PGRMC1-HA overexpressing NSC34 cells)?
The Bmax was 2.5 ± 0.08 pmol/mg.

With `O=c1oc2cc(N=C=S)ccc2n1CCCCN1CCN(c2ccc(F)cc2)CC1` [CM572] as the compound, how does the “type of S2R ligand” value (S2R [7]; ref Nicholson et al., 2015) read?
Its value is “irreversible selective affinity label for the S2R”.
